In patent US6673574B2, “Oral delivery of peptides using enzyme-cleavable membrane translocators” (Unigene Laboratories Inc., priority 2000, dated 2004):
Like-named read-outs stand apart in the source and are kept apart here.

Tests used:
[1] = Blood levels of salmon calcitonin after direct injection into duodenum, ileum or colon of rats; assay type: in vivo; settings: rat, other: injected directly into the duodenum, active components injected directly into duodenum
From the text: The acid is believed to lower the local intestinal pH (where the active agent has been released) to levels below the optimal range for many intestinal proteases and other intestinal enzymes. This decrease in pH reduces the proteolytic activity of the intestinal proteases, thus affording protection to the peptide and the membrane translocator from potential degradation. The activity of these proteases is diminished by the temporarily acidic environment provided by the invention. It is preferred that sufficient acid be provided that local intestinal pH is lowered temporarily to 5.5 or below, preferably 4.7 or below and more preferably 3.5 or below. The sodium bicarbonate test described below (in the section captioned “the pH-Lowering Agent”) is indicative of the required acid amount.

[2] = cited from earlier work
[3] = Absorption from rat duodenum: intraduodenal injection, plasma concentration by competitive enzyme immunoassay; assay type: in vivo; settings: for Cmax: peak plasma concentration by inspection
Description: Female Sprague-Dawley rats (250-275 g) (n=4 for each peptide) were anesthetized with ketamine and xylazine prior to the insertion of a cannula in the carotid artery. The cannula was fitted to a three way valve through which blood was sampled and replaced with physiological saline containing heparin. A midline incision was made in the abdominal cavity, and 0.45 mL of either sCT-gly (10 mg/mL) or OmpA-MT3-sCT-gly (10 mg/mL) in 0.5M citric acid was injected directly into the duodenum. Blood (0.5 ml) was collected before and at 5, 15, 30, 45 and 60 minutes after administration of the peptides. The blood was centrifuged, and the concentration (± SEM [standard error of the mean]) of sCT-gly or OmpA-MT3-sCT-gly in the plasma supernatant was determined by a competitive enzyme immunoassay (EIA). Peak plasma concentration (Cmax) was determined by inspection. The absolute bioavailbilty of each peptide (relative to an intravenous dose of sCT [salmon calcitonin]) was calculated from plots of the plasma concentration of each peptide as a function to time.

[4] = 0 min (before administration), 0.45 mL of 10 mg/mL in 0.5M citric acid into duodenum, ± SEM, n=4

CC(C)C[C@H](NC(=O)[C@H](CCCCN)NC(=O)CNC(=O)[C@H](CC(C)C)NC(=O)[C@@H](NC(=O)[C@@H]1CSSC[C@H](N)C(=O)N[C@@H](CO)C(=O)N[C@@H](CC(N)=O)C(=O)N[C@@H](CC(C)C)C(=O)N[C@@H](CO)C(=O)N[C@@H]([C@@H](C)O)C(=O)N1)C(C)C)C(=O)N[C@@H](CO)C(=O)N[C@@H](CCC(N)=O)C(=O)N[C@@H](CCC(=O)O)C(=O)N[C@@H](CC(C)C)C(=O)N[C@@H](Cc1c[nH]cn1)C(=O)N[C@@H](CCCCN)C(=O)N[C@@H](CC(C)C)C(=O)N[C@@H](CCC(N)=O)C(=O)N[C@H](C(=O)N[C@@H](Cc1ccc(O)cc1)C(=O)N1CCC[C@H]1C(=O)N[C@@H](CCCNC(=N)N)C(=O)N[C@H](C(=O)N[C@@H](CC(N)=O)C(=O)N[C@H](C(=O)NCC(=O)N[C@@H](CO)C(=O)NCC(=O)N[C@H](C(=O)N1CCC[C@H]1C(N)=O)[C@@H](C)O)[C@@H](C)O)[C@@H](C)O)[C@@H](C)O [salmon calcitonin]
Tmax [1]: 5 to 15 min
blood levels more than two hours after injection ([2]; conventional dosages): no detectable blood levels
peak level at which some patients report gastrointestinal distress ([2]; patients): ≥ 200 picograms per milliliter
half-life ([2]; subcutaneous administration in man): 20 to 40 min
peak serum concentration ([2]; subcutaneous, 100 International units): about 250 picograms per milliliter

CC(C)C[C@H](NC(=O)[C@H](CCCCN)NC(=O)CNC(=O)[C@H](CC(C)C)NC(=O)[C@@H](NC(=O)[C@@H]1CSSC[C@H](N)C(=O)N[C@@H](CO)C(=O)N[C@@H](CC(N)=O)C(=O)N[C@@H](CC(C)C)C(=O)N[C@@H](CO)C(=O)N[C@@H]([C@@H](C)O)C(=O)N1)C(C)C)C(=O)N[C@@H](CO)C(=O)N[C@@H](CCC(N)=O)C(=O)N[C@@H](CCC(=O)O)C(=O)N[C@@H](CC(C)C)C(=O)N[C@@H](Cc1c[nH]cn1)C(=O)N[C@@H](CCCCN)C(=O)N[C@@H](CC(C)C)C(=O)N[C@@H](CCC(N)=O)C(=O)N[C@H](C(=O)N[C@@H](Cc1ccc(O)cc1)C(=O)N1CCC[C@H]1C(=O)N[C@@H](CCCNC(=N)N)C(=O)N[C@H](C(=O)N[C@@H](CC(N)=O)C(=O)N[C@H](C(=O)NCC(=O)N[C@@H](CO)C(=O)NCC(=O)N[C@H](C(=O)N1CCC[C@H]1C(=O)NCC(=O)O)[C@@H](C)O)[C@@H](C)O)[C@@H](C)O)[C@@H](C)O [sCT-gly, CYS-SER-ASN-LEU-SER-THR-CYS-VAL-LEU-GLY-LYS-LEU-SER-GLN-GLU-LEU-HIS-LYS-LEU-GLN-THR-TYR-PRO-ARG-THR-ASN-THR-GLY-SER-GLY-THR-PRO-GLY]
plasma concentration [3, 4]: 0.00 ng/mL
Cmax ([3]; female, Sprague-Dawley, 4.5 mg, intraduodenal, rat, ± SEM, read-out: Cmax): 223 ± 44.8 ng/mL
bioavailability ([3]; female, Sprague-Dawley, plasma, other: injected directly into the duodenum (intraduodenal), 4.5 mg, relative to an intravenous dose of sCT, intraduodenal, rat, ± SEM, read-out: Absolute bioavailability): 0.92 ± 0.23%
level at 5 min ([3]; female, Sprague-Dawley, rat, plasma, 4.5 mg per animal, 5 min after intraduodenal injection, ± SEM, n=4): 201 ± 73.7 ng/mL
level at 0.25 h ([3]; female, Sprague-Dawley, rat, plasma, 4.5 mg per animal, 15 min after intraduodenal injection, ± SEM, n=4): 116 ± 39.1 ng/mL
level at 0.5 h ([3]; female, Sprague-Dawley, rat, plasma, 4.5 mg per animal, 30 min after intraduodenal injection, ± SEM, n=4): 223 ± 44.8 ng/mL
level at 0.75 h ([3]; female, Sprague-Dawley, rat, plasma, 4.5 mg per animal, 45 min after intraduodenal injection, ± SEM, n=4): 151 ± 107 ng/mL
level at 1 h ([3]; female, Sprague-Dawley, rat, plasma, 4.5 mg per animal, 60 min after intraduodenal injection, ± SEM, n=4): 179 ± 76.2 ng/mL

B1: OmpA-MT3-sCT-gly: salmon calcitonin-Gly fused to two MTs, the unprocessed OmpA signal peptide and MTS3 (HIV TAT domain), with TRP-VAL-ALA cleavable sequence (protein)
chain: MKKTAIAIAVALAGFATVAQAYGRKKRRQRRRWVACSNLSTCVLGKLSQELHKLQTYPRTNTGSGTPG
modifications: ends and bridges not checked
plasma concentration [3, 4]: 0.00 ng/mL
plasma concentration ([3]; 5 min after intraduodenal injection, ± SEM, n=4): 563.07 ± 150.44 ng/mL
plasma concentration ([3]; 15 min after intraduodenal injection, ± SEM, n=4): 1861.86 ± 713.20 ng/mL
plasma concentration ([3]; 30 min after intraduodenal injection, ± SEM, n=4): 5603.76 ± 1749.75 ng/mL
plasma concentration ([3]; 45 min after intraduodenal injection, ± SEM, n=4): 3879.76 ± 713.62 ng/mL
plasma concentration ([3]; 60 min after intraduodenal injection, ± SEM, n=4): 6060.70 ± 2462.69 ng/mL
Cmax relative to that of sCT-gly ([3]; intraduodenal, rat): more than 25 fold
Cmax ([3]; intraduodenal, rat, ± SEM): 6060.70 ± 2462.69 ng/mL
Absolute bioavailability ([3]; relative to an intravenous dose of sCT, intraduodenal, rat, ± SEM): 21.26 ± 6.23%
